Assays:
[1] = tested on: AKT phosphorylation in bone marrow-derived myeloid cells; test: AKT phosphorylation in myeloid cells stimulated with macrophage colony stimulating factor; format: cell-based; conditions: data not shown
[2] = tested on: LPS-stimulated mouse B cells; test: IgM secretion by ELISA; format: cell-based; conditions: supernatant after 3 days
From the text: We also evaluated plasmablast differentiation and IgM secretion in LPS-stimulated cells (Figure 5D). […] In cells treated with IPI-3063 or IPI-443, the highest concentrations inhibited plasmablast differentiation to the same degree as GDC-0941.
For cell culture ELISA to measure total IgM, supernatants from purified B cells stimulated with LPS were collected after 3 days and diluted 1:1,000 in 2% (wt/vol) BSA in PBS. Nunc Maxisorp plates (Thermo Fisher) were coated with anti-mouse IgM (RMM-1; BioLegend) at 10 µg/mL in 50 µL of total sample in PBS and allowed to incubate overnight at 4°C. Diluted supernatant samples were incubated on coated plates for 1 h at 37°C. HRP-conjugated rabbit anti-mouse IgM secondary antibody (Zymed) was used.

p110β = p110β (Homo sapiens, UniProt P42338); test: PI3K enzymatic assay (ADP-Glo) with purified enzymes; design: heterodimers consisting of full length p110α, p110β, or p110δ catalytic subunit and the p85α regulatory subunit; purchased Millipore 14-603-K; conditions: purified enzyme, mean ± spread (n), read-out: Biochemical IC50
Experimental: Human recombinant PI3K-α (cat. no. 14-602-K), -β (cat. no. 14-603-K), -δ (cat. no. 14-604-K), and -γ (cat. no. 14-558-K) were purchased from Millipore. Phosphatidylinositol 4,5 bis phosphate (diC8-PtdIns(4,5)P2) was purchased from Avanti Polar Lipids, Inc. PI3K-α, β, and δ are heterodimers consisting of full length p110α, p110β, or p110δ catalytic subunit and the p85α regulatory subunit. PI3K-γ is a monomer of the p110γ catalytic subunit. Samples of kinase (10 nM—α, β, and δ; 20 nM—γ) were incubated with inhibitor for 30 min at room temperature in reaction buffer (15 mM HEPES pH 7.4, 20 mM NaCl, 1 mM EGTA, 0.02% Tween 20, 10 mM MgCl2, 0.2 mg/mL bovine-γ-globulins) followed by addition of ATP/diC8-PtdIns(4,5)P2 mixture to give final concentrations of 3 mM ATP and 500 µM diC8-PtdIns(4,5)P2. Reactions were incubated at room temperature for 2 h, with PI3K activity assessed via the Promega ADP-Glo Max assay kit (cat. no. V7002) according to the manufacturer’s instruction. Plates were read on Envision plate reader in luminescence mode.

p110δ = test: isoform-specific cell-based assay, pAKT S473 ELISA
Experimental: (§1) Phospho-Akt1 (S473) sandwich ELISA antibody kit (Cell Signaling Technology, cat. no. 7143) was utilized to analyze pAKT signal in cells as described previously by Winkler et al. ([11]) (for data see Table 2). Briefly, SKOV3 and 786.0 cells were seeded into 96-well cell culture-graded plates at a density of […] per 200 µl culture media per well. Raji and Raw264.7 were seeded at the same density in FBS-free media. After overnight incubation at 5% CO2 and 37°C, the cells were treated with inhibitor for 30 min. Raji cells were stimulated with 10 µg/mL anti-human IgM (Jackson ImmunoResearch) for 30 min and Raw264.7 cells with 25 nM C5a (RnD Systems) for 3 min in the presence of inhibitor. SKOV3 and 786.0 cells were not stimulated. Medium was then aspirated and 50 µL/well of ice-cold lysis buffer was added. pAKT level was determined according to the manufacturer’s instruction.

p110α = test: isoform-specific cell-based assay, pAKT S473 ELISA; conditions: read-out: Cellular IC50
Experimental: as §1

[3] = design: method as in PMID 24211136; conditions: cited from earlier work
p110γ = p110γ (Mus musculus, UniProt Q9JHG7); test: isoform-specific cell-based assay, pAKT S473 ELISA; design: endogenous in cells; host or cells: Raw264.7; conditions: read-out: Cellular IC50
Experimental: as §1

p110β, sequence (P42338 whole entry): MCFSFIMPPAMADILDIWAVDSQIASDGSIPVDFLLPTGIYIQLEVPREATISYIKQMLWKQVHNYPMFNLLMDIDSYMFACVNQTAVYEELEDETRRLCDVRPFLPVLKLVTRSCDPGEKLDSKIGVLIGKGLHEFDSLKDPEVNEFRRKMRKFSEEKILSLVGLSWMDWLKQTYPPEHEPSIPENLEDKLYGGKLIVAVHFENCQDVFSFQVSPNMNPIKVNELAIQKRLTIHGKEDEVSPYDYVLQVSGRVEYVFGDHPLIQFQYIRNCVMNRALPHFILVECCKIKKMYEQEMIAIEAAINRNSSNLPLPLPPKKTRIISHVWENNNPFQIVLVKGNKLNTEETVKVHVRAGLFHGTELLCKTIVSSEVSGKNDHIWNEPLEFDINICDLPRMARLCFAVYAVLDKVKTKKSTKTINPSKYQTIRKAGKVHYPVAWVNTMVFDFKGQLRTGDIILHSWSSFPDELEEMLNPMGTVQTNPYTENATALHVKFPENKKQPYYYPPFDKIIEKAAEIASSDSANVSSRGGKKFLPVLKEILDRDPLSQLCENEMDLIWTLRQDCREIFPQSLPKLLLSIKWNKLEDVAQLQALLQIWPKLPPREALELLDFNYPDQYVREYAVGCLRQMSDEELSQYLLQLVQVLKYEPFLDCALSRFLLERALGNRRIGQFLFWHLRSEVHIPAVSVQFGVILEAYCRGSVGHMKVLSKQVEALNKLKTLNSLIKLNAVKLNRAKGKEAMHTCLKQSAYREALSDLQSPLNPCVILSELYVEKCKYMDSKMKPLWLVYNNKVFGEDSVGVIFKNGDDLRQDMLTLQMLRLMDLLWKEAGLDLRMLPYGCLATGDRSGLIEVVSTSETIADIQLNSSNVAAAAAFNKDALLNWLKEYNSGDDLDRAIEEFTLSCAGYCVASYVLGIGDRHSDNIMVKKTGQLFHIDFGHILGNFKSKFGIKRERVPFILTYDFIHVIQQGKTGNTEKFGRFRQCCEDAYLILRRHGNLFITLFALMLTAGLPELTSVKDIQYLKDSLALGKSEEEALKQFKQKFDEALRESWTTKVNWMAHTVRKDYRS
p110β, sequence (P27986 whole entry partner): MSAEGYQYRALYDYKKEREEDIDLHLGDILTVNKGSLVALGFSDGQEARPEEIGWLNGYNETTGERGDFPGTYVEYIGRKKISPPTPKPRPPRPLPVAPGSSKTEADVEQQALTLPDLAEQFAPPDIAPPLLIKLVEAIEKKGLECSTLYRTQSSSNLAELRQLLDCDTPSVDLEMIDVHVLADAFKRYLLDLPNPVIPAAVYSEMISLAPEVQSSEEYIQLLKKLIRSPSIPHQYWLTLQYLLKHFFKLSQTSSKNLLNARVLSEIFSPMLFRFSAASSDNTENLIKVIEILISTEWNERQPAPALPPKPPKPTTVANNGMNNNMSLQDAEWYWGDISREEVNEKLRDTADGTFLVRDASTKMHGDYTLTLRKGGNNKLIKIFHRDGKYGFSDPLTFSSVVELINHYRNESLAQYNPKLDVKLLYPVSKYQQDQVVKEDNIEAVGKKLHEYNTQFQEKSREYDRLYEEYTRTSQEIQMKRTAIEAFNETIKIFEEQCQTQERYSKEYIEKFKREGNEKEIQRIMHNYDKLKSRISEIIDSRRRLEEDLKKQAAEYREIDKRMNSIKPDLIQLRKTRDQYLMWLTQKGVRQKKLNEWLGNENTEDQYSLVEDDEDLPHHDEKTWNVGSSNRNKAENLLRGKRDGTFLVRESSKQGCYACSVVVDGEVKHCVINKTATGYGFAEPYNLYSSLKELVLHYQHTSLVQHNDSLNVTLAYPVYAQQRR
p110γ, sequence (Q9JHG7 whole entry, canonical isoform): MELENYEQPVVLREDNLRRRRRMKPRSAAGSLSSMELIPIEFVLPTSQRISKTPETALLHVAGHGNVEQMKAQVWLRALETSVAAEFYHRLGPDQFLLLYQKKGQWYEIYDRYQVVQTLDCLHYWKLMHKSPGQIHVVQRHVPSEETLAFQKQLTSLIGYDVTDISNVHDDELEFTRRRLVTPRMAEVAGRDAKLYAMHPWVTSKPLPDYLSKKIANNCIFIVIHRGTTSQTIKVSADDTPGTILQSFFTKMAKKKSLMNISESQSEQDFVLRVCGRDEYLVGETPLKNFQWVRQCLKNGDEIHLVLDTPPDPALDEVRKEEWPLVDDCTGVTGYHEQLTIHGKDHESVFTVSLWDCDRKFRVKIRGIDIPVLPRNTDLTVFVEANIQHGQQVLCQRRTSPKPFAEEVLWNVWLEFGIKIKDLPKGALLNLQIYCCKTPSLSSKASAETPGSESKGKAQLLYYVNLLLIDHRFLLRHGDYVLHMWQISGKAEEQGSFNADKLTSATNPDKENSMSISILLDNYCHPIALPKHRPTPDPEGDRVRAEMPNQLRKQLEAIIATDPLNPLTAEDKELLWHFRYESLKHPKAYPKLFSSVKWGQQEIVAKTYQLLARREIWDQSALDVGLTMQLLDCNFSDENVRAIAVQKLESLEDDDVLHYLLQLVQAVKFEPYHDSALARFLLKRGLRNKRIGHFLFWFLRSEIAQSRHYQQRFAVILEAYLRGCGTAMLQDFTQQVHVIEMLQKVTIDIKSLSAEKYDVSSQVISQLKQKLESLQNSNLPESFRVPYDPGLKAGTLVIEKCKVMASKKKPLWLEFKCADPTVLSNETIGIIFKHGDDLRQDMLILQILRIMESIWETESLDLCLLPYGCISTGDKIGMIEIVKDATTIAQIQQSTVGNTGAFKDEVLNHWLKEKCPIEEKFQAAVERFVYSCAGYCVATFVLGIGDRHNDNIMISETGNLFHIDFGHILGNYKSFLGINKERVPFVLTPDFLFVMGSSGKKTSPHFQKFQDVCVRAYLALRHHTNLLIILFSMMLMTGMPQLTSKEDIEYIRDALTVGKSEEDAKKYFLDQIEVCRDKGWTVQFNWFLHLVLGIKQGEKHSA

| Structure (SMILES) | effect on AKT phosphorylation [1] | effect on IgM secretion [2] | IC50 (p110β) [µM] | cellular IC50 values for the other class I PI3K isoforms relative to p110δ (p110δ; other class I isoforms vs p110δ, cell-based) | IC50 (p110δ; p110δ-specific cell-based assay, pAKT S473, read-out: Cellular IC50) [µM] | IC50 (p110α) [µM] | pharmacokinetics in mice [3] | IC50 (p110γ) [µM] |
| --- | --- | --- | --- | --- | --- | --- | --- | --- |
| O=C1NC(=O)/C(=C/c2ccc(-c3ccc(F)cc3O)o2)S1 [AS-252424, reference compound] | dose-dependent inhibition | no significant effect | – | – | – | – | – | – |
| CC(C)n1c([C@H](C)Nc2ncnc(N)c2C#N)cc2cccc(-c3ccc(=O)n(C)c3)c2c1=O [IPI-3063] | – | – | 1.51 | at least 1,000 fold | 0.0001 ± 1e-05 | 1.9 | good | 0.419 ± 0.117 |
